Measured values taken from patent publication US20140335050A1, “METHODS, COMPOSITIONS, AND KITS FOR THE TREATMENT OF CANCER” (The General Hospital Corporation, priority 2011, published 2014).

What was measured:
Type in all cases: cell-based, human
melanomas and gliomas = test: Intracellular staining for Melan-A/MART-1 and gp100, melanomas and gliomas exposed to hits (Table 10); settings: in most cell lines; three days (Table 10)
Experimental: FIG. 7 is a series of graphs showing intracellular staining and flow histograms used to generate data for Table 10. All cells were stained with an antibody to gp100. Thin line represents untreated cells, bold line represents cells treated for three days with 17-AAG (1 μg/ml). Numbers represent geometric mean of flow histograms.
A further orthogonal secondary screen is the measurement of Melan-A/MART-1 and gp100 in additional melanoma cell lines and gliomas in response to the primary hit candidates. […] If the compounds of interest increase antigen levels in multiple melanoma cell lines and two gliomas, the effects of the compounds are clearly not limited to a single melanoma cell type.
As for the primary screen, 17-AAG and aphidicolin, had the largest impact on EGFP stimulation, inducing 3-fold and 5-fold increases respectively. Four additional compounds: damnacanthal, flunarizine, OBAA, and dantrolene stimulated EGFP more than 2-fold. We then tested the ability of the hit compounds to induce antigen increases in a more diverse set of tumors including melanomas and gliomas. […]
(§1) Cells were fixed with 1% formaldehyde, permeabilized with 0.1% saponin, stained with monoclonal antibodies to melanocyte antigens. […] The level of EGFP was determined by flow cytometry of unfixed cells that were washed and resuspended in 1×PBS.

[1] = tested on: MU89 MART::EGFP cell line; test: Melan-A/MART-1 promoter-driven EGFP reporter, kinetics by flow cytometry; settings: MU89 MART::EGFP (FIG. 11)
Experimental: FIG. 11 is a set of four graphs showing the kinetics of Melan-A/MART-1 increase. […] The same number of cells per well were plated in each well of a 24 well plate and drug was added on day zero. Each day cells were collected and assayed for that time point. Control untreated cells are shown for comparison. The data are from one representative experiment.
A kinetic analysis was performed to determine the effect of Hsp90 inhibition on Melan-A/MART-1 promoter activity over time. […] Reporter activity increases steadily for the first 72 hours of Hsp90 inhibition, and then plateaus. The need for continued presence of Hsp90 inhibitors in order for them to be effective (i.e. whether the drug can be removed after short exposure, or whether it must it be continually present) was assessed. […] To achieve full signal enhancement, it is desirable to retain the drug for at least 48 hours, after which the effect remains constant or slightly decreases.
The generation and application of EGFP reporter cells has been previously described. Briefly, a 1200 base pair human genomic DNA segment encompassing the Melan-A/MART-1 promoter was used to generate a construct driving expression of the EGFP reporter gene. Stable transfectants with this construct were generated in the low-antigen cell line A375 and the high-antigen line MM96L+ and MU89. The EGFP expression response patterns of these cells to IFN-beta and MAP kinase inhibitors recapitulates the antigen up-regulation of endogenous Melan-A/MART-1 induced by these agents.
Intracellular staining and flow cytometric analyses of cytoplasmic Melan-A/MART-1, and gp100 expression were performed as described previously. Cells were fixed with 1% formaldehyde, permeabilized with 0.1% saponin, stained with monoclonal antibodies to melanocyte antigens. Antibodies were obtained with specificity for: Melan-A/MART-1 from Vector Labs (Burlingame, Calif.); gp100/HMB45 from DakoCytomation (Carpinteria, Calif.) and then visualized with goat anti-mouse FITC-conjugated secondary antibody from Invitrogen (Frederick, Md.). The level of EGFP was determined by flow cytometry of unfixed cells washed and resuspended in 1×PBS. Surface staining of MHC Class I was carried out using the antibody W6/32 on cells harvested with Cell Stripper from MediaTech Inc. (Manassas, Va.) and carried out on ice.

[2] = tested on: Melan-A/MART-1 promoter EGFP reporter cell line; test: Melan-A/MART-1 promoter-driven EGFP reporter cell line, secondary screen of hits (FIG. 6); settings: over a dose range (FIG. 6)
Text: FIG. 6 is a series of graphs showing EGFP detection of in cells treated with the indicated hits showing ability to upregulate a cell line containing a Melan-A/MART-1 promoter-driven EGFP reporter. Note that the x-axes (drug concentrations) and y-axes (EGFP fluorescent measurement) cover different ranges to best indicate the activities of individual compounds. Data from a single determination, representative of at least three confirmatory experiments, is shown.
The EGFP reporter driven by the Melan-A/MART-1 promoter represents one such orthogonal assay because it evaluates directly the effect of the compounds on Melan-A/MART-1 promoter activity independent of Melan-A/MART-1 protein expression. Compounds passing the other secondary screens, but failing this one, may affect antigen presentation by other mechanisms such as increasing the efficiency of antigen processing, enhancing MHC Class I levels, or by stabilizing the antigen/MHC complex.
As for the primary screen, 17-AAG and aphidicolin, had the largest impact on EGFP stimulation, inducing 3-fold and 5-fold increases respectively. […]
as §1

MU89 melanoma cells = test: Tumor cell/T cell co-culture IL-2 ELISA (Melan-A/MART-1 specific TCR Jurkat line J-TCR-M1 as responder); settings: for Fold increase (IL-2 relative to untreated controls), hits from pilot screen: about 10 μM, 72 hours treatment, then 24 hours co-culture; for IL-2 stimulation in repeat of the tumor T cell co-culture IL-2 ELISA: hits re-tested over a wider dose range (FIG. 5)
Text: The assay relies on the use of an antigen-specific responder T cell line. […] The chosen TCR reacts specifically to a Melan-A/MART-1 decapeptide (26[…]35) presented by HLA-A2, with appropriate triggering of T cell activation. We then used a lentiviral vector system for transduction of this specific TCR into the J.RT3-T3.5 T cell line, a Jurkat cell derivative which fails to express endogenous surface TCR through a mutation in its beta chain.
We evaluated several candidate melanoma cell lines for the ability to stimulate the J-TCR-M1 cell line. Levels of Melan-A/MART-1 (determined by intracellular staining and flow cytometry) and corresponding levels of induced IL-2 (determined by coculture with J-TCR-M1 and IL-2 ELISA) were tested for different melanoma cell lines.
The 480 compounds were tested in six parallel 96 well plates. The first two columns (16 wells) of each plate were used for standards (8 wells), untreated controls (4 wells), and positive controls (4 wells). The other ten columns (80 wells) were used for testing compounds in separate wells. A100 μl aliquot containing 5×10^4 MU89 cells was added to wells that contained 0.1 μl of each test drug diluted in 50 μl of RPMI media. The plates were incubated with drug for 72 hours at 37° C. in a humidified incubator with 5% CO2. After 72 hours, each well received 2.5×10^4J-TCR-M1 cells in 50 μl medium, and then incubated a further 24 hours. At the conclusion of the 24 hour co-culture period, each plate was centrifuged to pellet the cells and 100 μl supernatant fluid was collected from each well and plated in a parallel 96 well flat bottom well for IL-2 ELISA assay.
Melanoma cells were treated with hits from the primary screen for three days prior to counting and plating for the coculture assay (cells were washed and resuspended in fresh medium that no longer contained the treatment agents during the co-culture). A100 μl volume of 5×10^5 cells/ml tumor cells were mixed with 50 μl of […] T cells in a 96-well V-bottom plate and incubated overnight (16-24 hours). Plates were centrifuged to pellet the cells and 100 μl of supernatant fluid was removed from each well for cytokine assay. To assess antigen-specific T cell responses, a final concentration of 3.33 μg/ml Melan-A/MART-1 peptide (26[…]35 (A27L from wild type)) was added to the co-culture.
(§2) The protocol for evaluation of the cytokine IL-2 was performed using a the BD OptEAI kit, human IL-2 ELISA set from BD Biosciences (San Diego, Calif.) following the manufacturer's recommendations. The absorbance 450 nm was read in a BioRad 3550 plate reader. A standard curve using known concentrations of IL-2 (from 500 to 8 pg/ml) was included in each ELISA plate. IL-2 levels for experimental samples (pg/ml) were calculated from the standard curve.
100 μl of 5×10^5 tumor cells/ml were mixed with 50 μl of T cells (at 5×10^5 cells/ml) in a 96-well V-bottom plate and incubated overnight (16-24 hours). Plates were centrifuged to pellet the cells and 120 μl of supernatant fluid was removed from each well for cytokine assay. To assess antigen-specific T cell responses, 3.33 μg/ml Melan-A/MART-1 peptide was added to the co-culture.
The protocols for evaluation of either IL-2 or IFN-gamma were similar, following the manufacturer's recommendations. A standard curve using known concentrations of each cytokine was included in each ELISA experiment. ELISA plates were coated with capture antibody and then washed with 1×PBS 0.5% Tween-20. Wells were blocked with 1×PBS 1% FBS for 1 hour and rewashed.

J-TCR-M1 T cells = test: Secondary screen for nonspecific T cell activation (T cells alone, IL-2); settings: 2.5×10^4 T cells alone, no tumor; PMA 2 μg/ml
Experimental: FIG. 4 is a graph showing IL-2 expression from the secondary screen for nonspecific T cell activation. Bars indicate the incubation of 2.5×10^4 T cells alone with the indicated compounds. The concentration of compounds used in this assay are; 17-AAG 10 μg/ml, OBAA 25 μg/ml, aphidicolin 4 μg/ml, flunarizine 8 μg/ml, dantrolene 2 μg/ml, glyburide 4 μg/ml, and PMA 2 μg/ml.
Secondary screens were carried out on the 8 primary hits, to further test performance robustness, specificity, and certain functional properties. Initially, for any previously-described compound, extensive literature searches must be performed to look for all relevant known bioactivities, especially towards melanocytic cells or T cells. […] Testing for non-specific T cell stimulation will identify false positives, and compounds failing this test will not be further evaluated in any other secondary screens. […]
as §2, with “A standard curve using known concentrations of IL-2 (from 500 to 8 pg/ml) was included in each ELISA plate.” left out

C=CCNC1=C2C[C@@H](C)C[C@H](OC)[C@H](O)[C@@H](C)/C=C(\C)[C@H](OC(N)=O)[C@@H](OC)/C=C\C=C(/C)C(=O)NC(=CC1=O)C2=O [17-AAG, 17-allylaminogeldanamycin]
Protein increase (Melan-A/MART-1, gp100 intracellular staining) (melanomas and gliomas): inducing high levels of protein increases at low concentrations
Time at which the fluorescent reporter signal is significantly enhanced (as early as) [1]: 2 days
EGFP stimulation (Melan-A/MART-1 promoter reporter) [2]: 3 fold
Outcome in the primary co-culture IL-2 screen (hit or not) (MU89 melanoma cells; ICCB Known Bioactives Library, 10 μM): identified as a hit
Fold increase (IL-2 relative to untreated controls), hits from pilot screen (MU89 melanoma cells): 7.7 fold
IL-2 stimulation in repeat of the tumor T cell co-culture IL-2 ELISA (MU89 melanoma cells): about 7 fold

CCCCCCCCCCCCCC(=O)O[C@@H]1[C@@H](C)[C@@]2(O)[C@@H](C=C(CO)C[C@]3(O)C(=O)C(C)=C[C@@H]23)[C@@H]2C(C)(C)[C@]12OC(C)=O [PMA, phorbol-12-myristate-13 acetate]
Fold increase (IL-2 relative to untreated controls), hits from pilot screen (MU89 melanoma cells): 1.9 fold
IL-2 expression of T cells incubated alone with compound (nonspecific T cell activation) (J-TCR-M1 T cells): caused T cells stimulation in the absence of tumor

C[C@@]1(CO)[C@H](O)CC[C@@]2(C)[C@H]1CC[C@H]1C[C@@H]3C[C@@]12CC[C@]3(O)CO [Aphidicolin]
Protein increase (Melan-A/MART-1, gp100 intracellular staining) (melanomas and gliomas): inducing high levels of protein increases at low concentrations
EGFP stimulation (Melan-A/MART-1 promoter reporter) [2]: 5 fold
Fold increase (IL-2 relative to untreated controls), hits from pilot screen (MU89 melanoma cells): 2.0 fold
IL-2 stimulation in repeat of the tumor T cell co-culture IL-2 ELISA (MU89 melanoma cells): ~5 fold
